Patent publication US7638283B2, “Amyloid β protein (globular assembly and uses thereof)” (Northwestern University, priority 1997, dated 2009)

Columns and labels:
[1] = test system: hippocampal brain slice cultures; assay: Brain slice assay (LIVE/DEAD cell death); format: cell-based, mouse
Protocol: (§1) An adult mouse is sacrificed by carbon dioxide inhalation, followed by rapid decapitation. The head is emersed in cold, sterile dissection buffer (94 ml Gey's balanced salt solution, pH 7.2, supplemented with 2 mL 0.5M MgCl2, 2 ml 25% glucose, and 2 mL 1.0 M Hepes.), after which the brain is removed and placed on a sterile Sylgard-coated plate. The cerebellum is removed and a mid-line cut is made to separate the cerebral hemispheres. Each hemisphere is sliced separately. The hemisphere is placed with the mid-line cut down and a 30 degree slice from the dorsal side is made to orient the hemisphere. The hemisphere is glued cut side down on the plastic stage of a Campden tissue chopper (previously wiped with ethanol) and emersed in ice cold sterile buffer. Slices of 200 μm thickness are made from a lateral to medial direction, collecting those in which the hippocampus is visible. […] Cell death is measured using the LIVE/DEAD® assay kit (Molecular Probes, Eugene, Oreg.). This a dual-label fluorescence assay in which live cells are detected by the presence of an esterase that cleaves calcein-AM to calcein, resulting in a green fluorescence. Dead cells take up ethidium homodimer, which intercalates with DNA and has a red fluorescence. […] The MetaMorph image analysis system is used to quantify the number and/or area of cells showing green or red fluorescence. […]

[2] = test system: neuronal cell cultures; assay: Neurotoxicity in neuronal cell cultures; format: cell-based
Protocol: PC12 cells are passaged at 4×10^4 cell/well on a 96-well culture plate and grown for 24 hours in DMEM+10% fetal calf serum+1% S/P/F (streptomycin, penicillin, and fungizone). Plates are treated with 200 μg/mL poly-1-lysine for 2 hours prior to cell plating to enhance cell adhesion. One set of six wells is left untreated and fed with fresh media, while another set of wells is treated with the vehicle control (PBS containing 10% 0.01 N HCl, aged o/n at RT). Positive controls are treated with triton (1%) and Na Azide (0.1%) in normal growth media. Amyloid β oligomers prepared as described in Example 1, with and without inhibitor compounds present are added to the cells for 24 hours. After the 24 hour incubation, MTT (0.5 mg/mL) is added to the cells for 2.5 hours (11 μL of 5 mg/ml stock solubilized in PBS into 100 μL of media). Healthy cells reduce the MTT into a formazan blue colored product. After the incubation with MTT, the media is aspirated and 100 μL of 100% DMSO is added to lyse the cells and dissolve the blue crystals. The plate was incubated for 15 min at RT and read on a plate reader (ELISA) at 550 nm.
HN2 cells are passaged at 4×10^4 cells/well on a 96-well culture plate and grown for 24 hours in DMEM+10% fetal calf serum+1% S/P/F (streptomycin, penicillin, and fungizone). […] The plate is incubated for 15 min at RT and read on a plate reader (ELISA) at 550 nm.

[3] = test system: B103 cells; assay: FACScan assay for binding to intact cells; design: species or system rat
Protocol: For flow cytometry, cells are dissociated with 0.1% trypsin and plated at least overnight onto tissue culture plastic at low density. Cells are removed with cold PBS/0.5 mM EDTA, washed three times and resuspended in ice-cold PBS to a final concentration of 500,000 cells/mL. Cells are incubated in cold PBS with amyloid β oligomers prepared as described in Example 1, except that 10% of the amyloid β is an amyloid β 1-42 analog containing biocytin at position 1 replacing aspartate. Oligomers with and without inhibitor compounds present are added to the cells for 24 hours. The cells are washed twice in cold PBS to remove free, unbound amyloid β oligomers and resuspended in a 1:1,000 dilution of avidin conjugated to fluorescein and incubated for one hour at 4° C. with gentle agitation. Cells are analyzed by a Becton-Dickinson Fluorescence Activated Cell Scanner (FACScan). 10,000 or 20,000 events are collected for both forward scatter (size) and fluorescence intensity, and the data are analyzed by Consort 30 software (Becton-Dickinson). An alternative procedure uses amyloid β-specific antibodies and fluorescent secondary antibody instead of avidin, eliminating the need to incorporate 10% of the biotynylated amyloid β analog. FIG. 2 illustrates the ADDL-cell binding FACS analysis, and FIG. 3 illustrates the utility of the FACS assay for identification of ADDL-blocking compounds.

[4] = test system: hippocampus, synaptic activity (LTP); assay: LTP assay in injected animals; format: in vivo, mouse
From the text: Injections of intact animals: Mice are anesthesized with urethane and placed in a sterotaxic apparatus. Body temperature is maintained using a heated water jacket pad. The brain surface is exposed through holes in the skull. Bregma and lambda positions for injection into the middle molecular layer of hippocampus are 2 mm posterior to bregma, 1 mm lateral to the midline, and 1.2-1.5 mm ventral to the brain surface. Amyloid β oligomer injections are by nitrogen puff through ˜[…] diameter glass pipettes. Volumes of 20-50 nL of amyloid β oligomer solution (180 nM of amyloid β) are given over the course of an hour. The animal is allowed to rest for varying time periods before the LTP stimulus is given.
LTP in injected animals: Experiments follow the paradigm established Routtenberg and colleagues for LTP in mice (Namgung, et al., 1995). Perforant path stimulation from the entorhinal cortex is used, with recording from the middle molecular layer and the cell body of the dentate gyrus. […] Some sections are placed on slides subbed with gelatin and others are analyzed using a free-floating protocol. […]
Wave forms are analyzed by machine as described previously (Colley, 1990, J. Neurosci.). […]

[5] = test system: hippocampal neurons; assay: Neuronal viability in injected animals (brain slices after the LTP experiment); format: in vivo, mouse; conditions: 20 nL injected into hippocampal region
Protocol: After the LTP experiment is performed, animals are allowed to remover for various times and then sacrificed using sodium pentobarbitol asesthetic and perfusion with 4% paraformaldehye. For viability studies, times of 3 hours, 24 hours, 3 days, and 7 days are used. The brain is cryoprotected with 30% sucrose and then sectioned ([…]) with a microtome. Sections are placed on slides subbed with gelatin and stained initially with cresyl violet. Cell loss is measured by counting cell bodies in the dentate gyrus, CA3, CA1, and entorhinal cortex and is correlated with dose and time of exposure of ADDLs.

[6] = test system: serum starved B103 cells; assay: Cell morphology by phase microscopy; format: cell-based, rat
Protocol: Cultures are grown to low density (50-60% confluence). To initiate the experiment, the cells are serum starved in F12 media for 1 hour. Cells are then incubated for 3 hours with amyloid β oligomers prepared as described in Example 1, with and without inhibitor compounds added to the cells for […]. After 3 hours, cells are examined for morphological differences or fixed for immunofluorescence labeling. Samples are examined using the MetaMorph Image Analysis system and an MRI video camera (Universal Imaging, Inc.).

[7] = test system: fyn kinase; assay: fyn kinase activity in B103 cells; format: cell-based, rat
[8] = test system: brain slice cultures lacking a functional fyn gene; assay: Brain slice cultures from mice that lack a functional fyn gene; format: cell-based, mouse; conditions: compared to vehicle controls
Protocol: as §1

[9] = test system: primary astrocytes; assay: Activation of primary astrocyte cultures; format: cell-based
[10] = Neurotoxicity of amyloid β fractions and samples (test system not specified); format: cell-based; conditions: supernatant compared with unfractionated amyloid β aggregated under literature conditions

Row | Substance | neurotoxicity in brain slice cultures ([1]; supernatant of amyloid β 1-42 incubated in F12 at 4° C., Live/Dead fluorescence assay) | neurotoxicity in neuronal cell cultures [2] | receptor binding of ADDLs to B103 cells ([3]; 10% biotinylated amyloid β 1-42, fluorescent avidin conjugate, FACS) | LTP consolidation phase, synaptic activity as cell body spike amplitude ([4]; 20 nL injected into hippocampal region 60-70 minutes prior to LTP, over the subsequent 2 hours, compared with control animals) | LTP stimulation phase ([4]; 20 nL injected into hippocampal region of adult mouse 60-70 minutes prior to LTP) | cell death in brain slices after the LTP experiment [5] | morphology of serum starved B103 cells [6] | fyn kinase activity in B103 cells [7] | neurotoxicity in brain slice cultures from mice lacking a functional fyn gene [8] | activation of astrocytes [9] | mRNA for IL-1, inducible nitric oxide synthase, apo E, Apo J and α1-antichymotrypsin in astrocytes [9] | neurotoxicity of amyloid β fractions/samples [10] | blocking of the neurotoxic effects of ADDLs in the hippocampal brain slice assay ([1]; at 10 μM) | blocking of ADDL binding in the receptor assay ([3]; at 10 μM)
1 | ADDLs: amyloid β peptide assembled into non-fibrillar oligomeric structures; soluble globular assemblies of amyloid β 1-42 | highly neurotoxic | highly neurotoxic | saturable | significant, continuing decline in synaptic activity | identical with saline control injections | no cell death had occurred | rapid morphological change | activate fyn kinase activity | no increased neurotoxicity | become activated | become elevated | significantly higher neurotoxicity |  | 
2 | amyloid β 1-40 [reference compound] |  |  |  |  |  |  |  |  |  |  |  |  | capable of blocking the neurotoxic effects of ADDLs | capable of blocking ADDL binding
